# From patent US10800772B2 (Gilead Sciences, Inc., priority 2016, dated 2020)
# Read-outs that look alike come from different tables or passages of the source.
# Legend:
# [1] = tested on: HIV-IIIb (wildtype); experiment: Antiviral assay in MT4 cells, HIV-IIIb wildtype; type: cell-based, HIV-1; conditions: read-out: WT EC50
# Summary of the method: (§1)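 Luminescence from CellTiter-Glo after a 5-day culture served as the measure of HIV-1 replication in MT4 cells. Cells were infected beforehand for 3 h with HIV-IIIb (0.004 m.o.i.) and exposed to ten 3-fold compound dilutions. EC50 corresponds to a 50% signal decrease.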
# [2] = tested on: HIV-IIIb IN T174I BT; experiment: Antiviral assay in MT4 cells, HIV-IIIb IN T174I BT virus (from viral breakthrough); type: cell-based, HIV-1; conditions: Human immunodeficiency virus 1, IIIB, MT4, 120 h, read-out: T174I BT EC50, MT4 cells, HIV-IIIb IN T174I BT (viral breakthrough), 5 days, CellTiter-Glo
# Summary of the method: as §1
# [3] = tested on: HIV-IIIb IN T174I DE; experiment: Antiviral assay in MT4 cells, HIV-IIIb IN T174I DE virus (from dose escalation passaging); type: cell-based, HIV-1; conditions: Human immunodeficiency virus 1, IIIB, MT4, 120 h, read-out: T174I DE EC50, MT4 cells, HIV-IIIb IN T174I DE (dose escalation), 5 days, CellTiter-Glo
# Summary of the method: as §1
# [4] = Hum MS stability (human microsomal stability half-life); conditions: human microsomes
# [5] = Human immunodeficiency virus 1, IIIB, MT4, 120 h
SMILES,"EC50 [1, 5] [µM]",EC50 [2] [µM],EC50 [3] [µM],half-life [4] [h],"EC50 ([1]; Human immunodeficiency virus 1, 120 h, MT4 cells, HIV-IIIb wildtype, 5 days, CellTiter-Glo) [µM]"
"COC1CN(c2nn(C)c3ccc(-c4nc5cc(C)c([C@H](OC(C)(C)C)C(=O)O)c(-c6ccc(Cl)cc6)c5s4)cc23)C1 [Compound 2, (S)-2-(tert-butoxy)-2-(7-(4-chlorophenyl)-2-(3-(3-methoxyazetidin-1-yl)-1-methyl-1H-indazol-5-yl)-5-methylbenzo[d]thiazol-6-yl)acetic Acid]",0.007,1.02,2.58,1.82,–
"Cc1cc2nc(-c3ccc4c(n3)c(C3CCN(CCN(C)C)CC3)nn4C)sc2c(-c2ccc(Cl)cc2)c1[C@H](OC(C)(C)C)C(=O)O [Compound 173, (S)-2-(tert-butoxy)-2-(7-(4-chloro-phenyl)-2-(3-(1-(2-(dimethylamino)ethyl)piperidin-4-yl)-1-methyl-1H-pyrazolo[4,3-b]pyridin-5-yl)-5-methylbenzo[d]thiazol-6-yl) acetic acid]",0.002,0.045,0.089,1.2,–
"Cc1cc2nc(-c3ccc4c(c3)c(C3CCN(C5CC(O)C5)CC3)nn4C)sc2c(-c2ccc(Cl)cc2)c1[C@H](OC(C)(C)C)C(=O)O (stereo partly drawn) [Compound 156, (S)-2-(tert-butoxy)-2-(7-(4-chloro-phenyl)-2-(3-(1-((1s,3s)-3-hydroxy-cyclobutyl)piperidin-4-yl)-1-methyl-1H-indazol-5-yl)-5-methylbenzo[d]thiazol-6-yl) acetic acid]",0.011,0.126,0.197,4.95,–
"Cc1cc2nc(-c3ccc4c(c3)c(C3CCN(C5COC5)C3)nn4C)sc2c(-c2ccc(Cl)cc2)c1[C@H](OC(C)(C)C)C(=O)O (stereo partly drawn) [Compound 70, (2S)-2-(tert-butoxy)-2-(7-(4-chlorophenyl)-5-methyl-2-(1-methyl-3-(1-(oxetan-3-yl)pyrrolidin-3-yl)-1H-indazol-5-yl)benzo[d]thiazol-6-yl)acetic acid]",0.007,0.587,0.942,5.87,–
"COC1(C)CN(c2nn(C)c3ccc(-c4nc5cc(C)c([C@H](OC(C)(C)C)C(=O)O)c(-c6ccc(Cl)cc6)c5s4)cc23)C1 [Compound 131, (S)-2-(tert-butoxy)-2-(7-(4-chloro-phenyl)-2-(3-(3-methoxy-3-methylazetidin-1-yl)-1-methyl-1H-indazol-5-yl)-5-methylbenzo[d]thiazol-6-yl) acetic acid]",0.01,7.95,3.74,4.15,–
"Cc1cc2nc(-c3ccc4c(c3)c(C3CCN(C5COC5)CC3)nn4C)sc2c(-c2ccc(Cl)cc2)c1[C@H](OC(C)(C)C)C(=O)O [Compound 1, (S)-2-(tert-butoxy)-2-(7-(4-chlorophenyl)-5-methyl-2-(1-methyl-3-(1-(oxetan-3-yl)piperidin-4-yl)-1H-indazol-5-yl)benzo[d]thiazol-6-yl)acetic Acid]",–,0.143,0.315,5.83,0.005
"Cc1cc2nc(-c3cnc4c(c3)c(C3CCN(C5COC5)CC3)cn4C)sc2c(-c2ccc(Cl)cc2)c1[C@H](OC(C)(C)C)C(=O)O [Compound 17, (S)-2-(tert-butoxy)-2-(7-(4-chlorophenyl)-5-methyl-2-(1-methyl-3-(1-(oxetan-3-yl)piperidin-4-yl)-1H-pyrrolo[2,3-b]pyridin-5-yl)benzo[d]thiazol-6-yl)acetic Acid]",0.008,0.238,0.786,4.7,–
"CCOCCN1CCN(c2nn(C)c3ccc(-c4nc5cc(C)c([C@H](OC(C)(C)C)C(=O)O)c(-c6ccc(Cl)cc6)c5s4)cc23)CC1 [Compound 99, (S)-2-(tert-butoxy)-2-(7-(4-chlorophenyl)-2-(3-(4-(2-ethoxyethyl)piperazin-1-yl)-1-methyl-1H-indazol-5-yl)-5-methylbenzo[d]thiazol-6-yl)acetic Acid]",0.006,0.485,0.759,4.33,–
"Cc1cc2nc(-c3ccc4c(c3)c(C3CCOC3)nn4C)sc2c(-c2ccc(Cl)cc2)c1[C@H](OC(C)(C)C)C(=O)O (stereo partly drawn) [Compound 52, (2S)-2-(tert-butoxy)-2-(7-(4-chlorophenyl)-5-methyl-2-(1-methyl-3-(tetrahydrofuran-3-yl)-1H-indazol-5-yl)benzo[d]thiazol-6-yl)acetic acid]",0.008,0.905,0.946,3.72,–
"CC(=O)N1CCC(c2nn(C)c3ccc(-c4nc5cc(C)c([C@H](OC(C)(C)C)C(=O)O)c(-c6ccc(Cl)cc6)c5s4)cc23)C1 (stereo partly drawn) [Compound 74, (2S)-2-(2-(3-(1-acetylpyrrolidin-3-yl)-1-methyl-1H-indazol-5-yl)-7-(4-chlorophenyl)-5-methylbenzo[d]thiazol-6-yl)-2-(tert-butoxy)acetic acid]",0.01,0.349,0.587,3.32,–
"COCCN1C(=O)N(c2nn(C)c3ccc(-c4nc5cc(C)c([C@H](OC(C)(C)C)C(=O)O)c(-c6ccc(Cl)cc6)c5s4)cc23)CC1(C)C [Compound 123, (S)-2-(tert-butoxy)-2-(7-(4-chlorophenyl)-2-(3-(3-(2-methoxyethyl)-4,4-dimethyl-2-oxoimidazolidin-1-yl)-1-methyl-1H-indazol-5-yl)-5-methylbenzo[d]thiazol-6-yl)acetic acid]",0.011,1.45,7.09,1.6,–
"Cc1cc2nc(-c3ccc4c(c3)c(N3CC[C@@H](N(C)C)C3)nn4C)sc2c(-c2ccc(Cl)cc2)c1[C@H](OC(C)(C)C)C(=O)O [Compound 92, (S)-2-(tert-butoxy)-2-(7-(4-chlorophenyl)-2-(3-((R)-3-(dimethylamino)pyrrolidin-1-yl)-1-methyl-1H-indazol-5-yl)-5-methylbenzo[d]thiazol-6-yl)acetic acid]",0.014,0.938,1.95,6.05,–
"Cc1cc2nc(-c3ccc4c(c3)c(N3CCN(C)CC3)nn4C)sc2c(-c2ccc(Cl)cc2)c1[C@H](OC1CC1)C(=O)O [Compound 103, (S)-2-(7-(4-chlorophenyl)-5-methyl-2-(1-methyl-3-(4-methylpiperazin-1-yl)-1H-indazol-5-yl)benzo[d]thiazol-6-yl)-2-cyclopropoxyacetic acid]",0.032,0.267,0.367,2.47,–
"COCCN(C)C1CN(c2nn(C)c3ccc(-c4nc5cc(C)c([C@H](OC(C)(C)C)C(=O)O)c(-c6ccc(Cl)cc6)c5s4)cc23)C1 [Compound 145, (S)-2-(tert-butoxy)-2-(7-(4-chloro-phenyl)-2-(3-(3-((2-methoxyethyl) (methyl)amino)azetidin-1-yl)-1-methyl-1H-indazol-5-yl)-5-methylbenzo[d]thiazol-6-yl) acetic acid]",0.012,1.59,2.17,2.15,–
"Cc1cc2nc(-c3ccc4c(c3)c(N3CCN(CC5CC5)CC3)nn4C)sc2c(-c2ccc(Cl)cc2)c1[C@H](OC(C)(C)C)C(=O)O [Compound 100, (S)-2-(tert-butoxy)-2-(7-(4-chlorophenyl)-2-(3-(4-(cyclopropylmethyl)piperazin-1-yl)-1-methyl-1H-indazol-5-yl)-5-methylbenzo[d]thiazol-6-yl)acetic acid]",0.01,1.88,3.59,3.23,–
"Cc1cc2nc(-c3ccc4c(n3)c(C3CCN(C5COC5)CC3)nn4C)sc2c(-c2ccc(Cl)cc2)c1[C@H](OC(C)(C)C)C(=O)O [Compound 175, (S)-2-(tert-butoxy)-2-(7-(4-chloro-phenyl)-5-methyl-2-(1-methyl-3-(1-(oxetan-3-yl)piperidin-4-yl)-1H-pyrazolo [4,3-b]pyridin-5-yl)benzo[d]thiazol-6-yl) acetic acid]",0.003,0.122,0.252,5.95,–
"Cc1cc2nc(-c3ccc4c(c3)c(C3CCN(C5CCOC5)CC3)nn4C)sc2c(-c2ccc(Cl)cc2)c1[C@H](OC(C)(C)C)C(=O)O (stereo in doubt) [Compound 26, (S)-2-(tert-butoxy)-2-(7-(4-chlorophenyl)-5-methyl-2-(1-methyl-3-(1-((S)-tetrahydrofuran-3-yl)piperidin-4-yl)-1H-indazol-5-yl)benzo[d]thiazol-6-yl)acetic Acid]",0.004,0.129,0.27,4.68,–
"Cc1cc2nc(-c3ccc4c(c3)c(C3CCN(C5CCOC5)CC3)nn4C)sc2c(-c2ccc(Cl)cc2)c1[C@H](OC(C)(C)C)C(=O)O (stereo in doubt) [Compound 27, (S)-2-(tert-butoxy)-2-(7-(4-chlorophenyl)-5-methyl-2-(1-methyl-3-(1-((R)-tetrahydrofuran-3-yl)piperidin-4-yl)-1H-indazol-5-yl)benzo[d]thiazol-6-yl)acetic Acid]",0.004,0.154,0.245,4.17,–
